Measured values: ChEMBL document CHEMBL5674860, “Optimized Dual-Glo Assay to identify co-culture-induced drug vulnerabilities in 3D CRC models” (2024)

How the values were obtained:
Format in all cases: functional, Homo sapiens
Set-up in all cases: dose or concentration left out as unconfirmed
Colon cancer organoid [1] = test: Optimized Dual-Glo assay to identify co-culture induced drug vulnerabilities using donated chemical probes and chemogenomics kinase set in O06 CRC organoid and F06 CAF mono and co-culture. […] Cell viability is reported both mono and co-culture models.
Colon cancer organoid [2] = test: Optimized Dual-Glo assay to identify co-culture induced drug vulnerabilities using donated chemical probes and chemogenomics kinase set in O14 CRC organoid and F14 CAF mono and co-culture. […] Cell viability is reported both mono and co-culture models.
Colon cancer organoid [3] = test: Optimized Dual-Glo assay to identify co-culture induced drug vulnerabilities using donated chemical probes and chemogenomics kinase set in O20 CRC organoid and F20 CAF mono and co-culture. […] Cell viability is reported both mono and co-culture models.
[4] = Culture type Co-Culture, Transduced with Lucferase2-P2A-EGFP lentivirus
[5] = Culture type Co-Culture, Transduced with Renilla-dsRed lentivirus
[6] = Culture type Mono-Culture, Transduced with Lucferase2-P2A-EGFP lentivirus
[7] = Culture type Mono-Culture, Transduced with Renilla-dsRed lentivirus

Row | SMILES | Cell Viability (Colon cancer organoid [1]; [4]) [%] | Cell Viability (Colon cancer organoid [1]; [5]) [%] | Cell Viability (Colon cancer organoid [1]; [6]) [%] | Cell Viability (Colon cancer organoid [1]; [7]) [%] | Cell Viability (Colon cancer organoid [2]; [4]) [%] | Cell Viability (Colon cancer organoid [2]; [5]) [%] | Cell Viability (Colon cancer organoid [2]; [6]) [%] | Cell Viability (Colon cancer organoid [2]; [7]) [%] | Cell Viability (Colon cancer organoid [3]; [4]) [%] | Cell Viability (Colon cancer organoid [3]; [5]) [%] | Cell Viability (Colon cancer organoid [3]; [6]) [%] | Cell Viability (Colon cancer organoid [3]; [7]) [%]
1 | Cc1sc2c(c1C)C(c1ccc(Cl)cc1)=N[C@@H](CC(=O)OC(C)(C)C)c1nnc(C)n1-2 | 24.0633 | 301.325 | 25.9077 | 273.458 | 21.0352 | 390.207 | 21.1376 | 218.603 | 11.0659 | 145.881 | 17.1066 | 37.2064
2 | COc1cc2c(cc1-c1c(C)noc1C)ncc1[nH]c(=O)n([C@H](C)c3ccccn3)c12 | 43.5488 | 325.273 | 54.5625 | 294.029 | 36.9013 | 317.138 | 43.8564 | 208.742 | 26.0295 | 172.215 | 25.6738 | 101.868
3 | CCCc1cc(C)[nH]c(=O)c1CNC(=O)c1cc(-c2ccnc(N3CCN(C)CC3)c2)cc2c1cnn2C(C)C | 75.6598 | 125.188 | 109.33 | 104.205 | 90.4891 | 115.464 | 111.507 | 115.721 | 55.9892 | 146.305 | 86.0915 | 120.133
4 | CC(C)NC(=O)N1CC[C@H](NC2=Nc3cc(F)ccc3N(CC(F)F)c3ccc(Cl)cc32)C1 | 86.0472 | 89.4587 | 81.5326 | 94.1375 | 105.089 | 97.5374 | 82.3325 | 100.505 | 55.1322 | 142.836 | 58.5304 | 89.934
5 | CN1CCN(c2ccc(-c3cccc(CN4CCOCC4)c3)cc2NC(=O)c2c[nH]c(=O)cc2C(F)(F)F)CC1 | 91.1397 | 122.014 | 99.8143 | 114.421 | 81.9859 | 136.534 | 110.455 | 90.7791 | 82.2903 | 116.555 | 112.073 | 84.4992
6 | CC(C)Oc1ccc(-c2c[nH]cc2CN(C)CCN)cc1 | 47.5822 | 178.793 | 30.9197 | 89.9891 | 38.1359 | 167.261 | 29.2667 | 88.3814 | 47.7555 | 252.195 | 49.3092 | 91.7276
7 | CNCCN1CCC(OCc2ccccc2)CC1 | 118.085 | 144.179 | 105.555 | 98.6528 | 36.6993 | 161.59 | 58.8026 | 109.763 | 15.2188 | 211.667 | 16.3767 | 101.684
8 | Cn1c(=O)[nH]c2cc(N3C(=O)c4cccc5c(CCCO)ccc(c45)C3=O)ccc21 | 115.119 | 110.623 | 83.0583 | 109.161 | 89.1085 | 114.749 | 98.1543 | 99.5703 | 125.633 | 89.8045 | 109.771 | 112.055
9 | CN(C)[C@H]1CN(C2CCc3cccc(F)c32)C[C@@H]1c1ccc(N2CCN(S(C)(=O)=O)CC2)cc1 (stereo partly drawn) | 82.1891 | 127.07 | 99.7479 | 137.803 | 85.2853 | 124.227 | 108.249 | 110.303 | 31.8041 | 145.189 | 62.1102 | 96.7919
10 | CC1(C)C(N)=Nc2cc(OCCCN3Cc4ccc(OCCc5cn(CC(=O)N6CCC(CCN7CCCC7)CC6)nn5)cc4C3)c(OCC3CC3)cc21 | 85.8179 | 109.54 | 61.6099 | 146.021 | 83.4014 | 129.005 | 107.567 | 119.85 | 94.7334 | 161.052 | 109.897 | 111.947
11 | CC1(C)C(N)=Nc2cc(OCCCCN3Cc4ccc(OCc5cn(CC(=O)N6CCC(CCN7CCCC7)CC6)nn5)cc4C3)c(OCC3CC3)cc21 | 65.2251 | 114.368 | 80.2418 | 105.711 | 75.997 | 107.884 | 116.341 | 106.753 | 70.4635 | 125.652 | 114.565 | 111.957
12 | CN(C)C(=O)Cn1cc(-c2ccc(-c3cncc4ccccc34)cc2)cn1 | 83.3121 | 47.4852 | 74.4895 | 24.5354 | 86.7541 | 14.5396 | 75.1396 | 23.2323 | 97.1634 | 25.8647 | 131.343 | 32.5119
13 | COc1ccccc1-c1cc(N2CCN(C(=O)OC(C)(C)C)CC2)c(N)nn1 | 99.4085 | 102.712 | 83.0998 | 116.6 | 99.785 | 110.211 | 110.079 | 98.4172 | 122.85 | 160.936 | 122.916 | 117.085
14 | Cc1ccc2nc(NCCN)c3ncc(C)n3c2c1.O=C(O)C(F)(F)F.O=C(O)C(F)(F)F | 94.0156 | 112.188 | 113.649 | 154.019 | 82.3615 | 114.809 | 73.2048 | 109.465 | 230.973 | 67.6056 | 101.148 | 93.4293
15 | CN(C)C(=O)Cn1cc(-c2ccc(-c3nnc4ccccn34)cc2)cn1 | 105.212 | 110.192 | 69.5948 | 88.4504 | 93.0602 | 86.1026 | 137.129 | 87.3202 | 165.558 | 52.6743 | 140.63 | 85.2439
16 | CN(C)C(=O)N1CC[C@H](NC2=Nc3cc(F)ccc3N(CC(F)F)c3ccc(Cl)cc32)C1 | 158.864 | 159.783 | 102.875 | 125.077 | 130.518 | 98.5664 | 108.387 | 90.4728 | 71.357 | 98.2431 | 112.934 | 109.328
17 | CCn1c(-c2nc3cc(C(=O)N4CCCC(N)C4)ccc3n2C)cc2ccccc21.Cl (stereo not drawn) | 115.054 | 117.733 | 118.281 | 112.415 | 85.5466 | 126.887 | 120.87 | 100.943 | 132.709 | 136.72 | 106.473 | 96.2054
18 | Cc1cc(CN)cc(C)c1-c1ncn(C)c1-c1ccnc2cc(F)ccc12.Cl | 105.057 | 123.721 | 137.219 | 129.63 | 87.6168 | 103.014 | 105.617 | 97.8671 | 143.957 | 87.6481 | 139.188 | 92.4746
19 | COc1cc(OC)cc(-c2noc(N3CCN(C)C4(CCN(c5ccccc5)CC4)C3)n2)c1 | 67.7845 | 115.277 | 89.2845 | 104.733 | 94.7889 | 110.973 | 95.4006 | 91.5093 | 90.0996 | 110.491 | 105.262 | 93.4153
